In PubChem BioAssay (NCI):
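Assay format: 96-well plates, 48-hour exposure. The concentration for 50% growth inhibition is given as GI50. TGI denotes the concentration required for complete inhibition of growth.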

Columns and labels:
Assay in all cases: inhibition of tumour cell growth, NCI panel, 48 h
SF-268 CNS = tested on: SF-268 CNS
SW-620 colon = tested on: SW-620 colon
OVCAR-5 ovarian = tested on: OVCAR-5 ovarian
OVCAR-3 ovarian = tested on: OVCAR-3 ovarian
UO-31 renal = tested on: UO-31 renal
SK-OV-3 ovarian = tested on: SK-OV-3 ovarian
M14 melanoma = tested on: M14 melanoma
SR leukemia = tested on: SR leukemia
BT-549 breast = tested on: BT-549 breast
PC-3 prostate = tested on: PC-3 prostate

| SMILES | TGI (SF-268 CNS) | TGI (SW-620 colon) | TGI (OVCAR-5 ovarian) | TGI (OVCAR-3 ovarian) | TGI (UO-31 renal) | TGI (SK-OV-3 ovarian) | TGI (M14 melanoma) | TGI (SR leukemia) | TGI (BT-549 breast) | TGI (PC-3 prostate) | GI50 (SF-268 CNS) | GI50 (BT-549 breast) | GI50 (OVCAR-5 ovarian) | GI50 (PC-3 prostate) | GI50 (OVCAR-3 ovarian) | GI50 (UO-31 renal) | GI50 (SK-OV-3 ovarian) | GI50 (M14 melanoma) | GI50 (SW-620 colon) | GI50 (SR leukemia) |
| --- | --- | --- | --- | --- | --- | --- | --- | --- | --- | --- | --- | --- | --- | --- | --- | --- | --- | --- | --- | --- |
| CN(C)c1ccc(/C=C/C(=O)c2ccccc2)cc1Br | 49.3 µM | 43.8 µM | > 100 µM | 35.5 µM | 33.3 µM | > 100 µM | 27.3 µM | – | – | – | – | – | – | – | – | – | – | – | – | – |
| COc1ccc2c(c1)CCc1cnn(C3OC(COC(C)=O)C(OC(C)=O)C(OC(C)=O)C3OC(C)=O)c1-2 (stereo unspecified) | > 100 µM | 36.2 µM | > 100 µM | 56.7 µM | – | – | > 100 µM | 70.5 µM | – | – | – | – | – | – | – | – | – | – | – | – |
| COC(=O)CCC(=O)CC(=O)C(=O)Nc1ccc(F)cc1 | > 100 µM | > 100 µM | > 100 µM | > 100 µM | > 100 µM | > 100 µM | > 100 µM | – | – | – | – | – | – | – | – | – | – | – | – | – |
| COC(=O)CSc1ccccc1 | > 100 µM | > 100 µM | > 100 µM | > 100 µM | > 100 µM | > 100 µM | > 100 µM | – | – | – | – | – | – | – | – | – | – | – | – | – |
| COc1ccc2c(CC(=O)O)cc(=O)oc2c1 | > 100 µM | > 100 µM | > 100 µM | > 100 µM | > 100 µM | – | > 100 µM | > 100 µM | > 100 µM | > 100 µM | – | – | – | – | – | – | – | – | – | – |
| CNc1nnnn1C1OC(CO)C(O)C1O (stereo unspecified) | > 100 µM | > 100 µM | > 100 µM | > 100 µM | > 100 µM | > 100 µM | > 100 µM | – | – | – | – | – | – | – | – | – | – | – | – | – |
| C[C@]12CCC3[C@@H](C[C@H]4OC(=O)[C@@]35CCC(=O)C=C45)C1CCC2=O (stereo partly specified) | > 100 µM | > 100 µM | > 100 µM | > 100 µM | > 100 µM | > 100 µM | > 100 µM | > 100 µM | – | – | – | – | – | – | – | – | – | – | – | – |
| CC1(C)CC[C@]2(C(=O)n3ccnc3)CC[C@]3(C)[C@H](C(=O)C=C4[C@@]5(C)C=C(C#N)C(=O)C(C)(C)[C@@H]5CC[C@]43C)[C@@H]2C1 | > 100 µM | – | 0.137 µM | 0.0994 µM | < 0.0174 µM | 0.317 µM | 0.196 µM | – | 0.126 µM | 0.0655 µM | 0.0164 µM | < 0.0328 µM | 0.0103 µM | < 0.0142 µM | < 0.01 µM | < 0.0108 µM | 0.0347 µM | 0.0287 µM | – | – |
| Cc1cc2c(cc1C)N1Cc3c(ccc(C)c3C)N(C2)C1 (tested in a mixture with another compound) | > 100 µM | > 100 µM | – | > 100 µM | – | > 100 µM | > 100 µM | – | – | – | – | – | – | – | – | – | – | – | – | – |
| O=C1C(c2ccc([N+](=O)[O-])cc2)=[N+]([O-])c2ccccc21 | > 100 µM | > 100 µM | 47.5 µM | 55.4 µM | 67 µM | > 100 µM | > 100 µM | 62.3 µM | – | – | – | – | – | – | – | – | – | – | – | – |
| CC(C)(C)C(=O)OCOP(=O)(OCOC(=O)C(C)(C)C)C1CCCN(OC(=O)c2ccccc2)C1=O (stereo unspecified) | 61.7 µM | 24.4 µM | > 100 µM | 7.28 µM | 2.36 µM | 27.1 µM | 16.5 µM | – | 17.9 µM | > 100 µM | 1.86 µM | 2.64 µM | 4.1 µM | 4.38 µM | 1.24 µM | 0.297 µM | 1.99 µM | 2.3 µM | 1.42 µM | – |
| Cc1cc2cc(Cl)ccc2nc1C(=O)c1ccccc1 | > 100 µM | > 100 µM | > 100 µM | > 100 µM | > 100 µM | – | > 100 µM | > 100 µM | – | – | – | – | – | – | – | – | – | – | – | – |
| C[As](C)Sc1ccnc(S[As](C)C)n1 | > 39.7 µM | 19.5 µM | > 48.4 µM | 22 µM | 26.9 µM | > 100 µM | > 44.9 µM | – | 18.2 µM | 30.8 µM | 7.44 µM | 3.78 µM | 19.6 µM | 3.14 µM | 3.91 µM | 3.73 µM | 12.4 µM | 3.94 µM | 1.4 µM | – |
| O=C(Nc1ccc(Cl)c(Cl)c1)C(=O)Nn1c(=S)[nH]c2ccccc2c1=O | > 100 µM | > 100 µM | > 100 µM | – | > 100 µM | > 100 µM | > 100 µM | > 100 µM | – | – | – | – | – | – | – | – | – | – | – | – |
| COc1cc(-c2cc(/C=C/C(=O)c3ccc4c(c3)OCO4)[nH]n2)cc(OC)c1OC | 14.5 µM | – | 93.5 µM | 12.3 µM | 5.44 µM | 26.1 µM | > 100 µM | > 100 µM | – | 13.7 µM | 2.97 µM | – | 3.37 µM | 2.81 µM | 3.38 µM | 1.91 µM | 5.76 µM | 3.86 µM | – | 0.552 µM |
| O=C(N/N=C/c1coc2ccc(Cl)cc2c1=O)c1ccncc1 | > 100 µM | > 100 µM | > 100 µM | > 100 µM | > 100 µM | > 100 µM | > 100 µM | – | > 100 µM | > 100 µM | 89.7 µM | 71.3 µM | > 100 µM | 59.1 µM | 68.5 µM | 58.4 µM | > 100 µM | 37.5 µM | > 100 µM | – |
| O=C(CCCCC(=O)N/N=C\c1ccccc1Cl)N/N=C\c1ccccc1Cl | 56.7 µM | – | > 100 µM | 28.8 µM | > 100 µM | – | > 100 µM | > 100 µM | – | > 100 µM | 13.5 µM | – | > 100 µM | 0.511 µM | 0.598 µM | 3.32 µM | – | 2.06 µM | – | > 100 µM |
| C=CCCC(O)c1ccc(C(O)CCCCCCCCCCCC)o1 (stereo unspecified) | > 100 µM | 37.9 µM | 41.4 µM | 35.7 µM | 41.4 µM | > 100 µM | 35.3 µM | – | 42.2 µM | 47.8 µM | > 100 µM | 19.9 µM | 21.5 µM | 22.8 µM | 18.7 µM | 18.7 µM | > 100 µM | 17.8 µM | 17.9 µM | – |
